Four molecules from EP0745083B1, “2-HETEROARYL-5,11-DIHYDRO-6H-DIPYRIDO [3,2-b:2',3'-e][1,4]DIAZEPINES AND THEIR USE IN THE PREVENTION OR TREATMENT OF HIV INFECTION” (BOEHRINGER INGELHEIM PHARMACEUTICALS INC., priority 1994, dated 1995) can be followed below.

The structures appear in SMILES notation.

One data set addresses T1, HIV-1 RT Y181C (Human immunodeficiency virus type 1 group M subtype B, UniProt P03367, Y780C).
T1 construct: Utilization of mutant RT eraymes (Y181C and Y181L, prepared by site-directed mutagenesis); made in house
Briefly: Reverse Transcriptase (RT) Assay, Y181C mutant enzyme. Type of data set: biochemical, Human Immunodeficiency Virus (HIV-1). Particulars: 1 µM compound, read-out: Reverse Transciptase Assay % inhibition (1 µM) Y181C.

The next data set is described as follows: MTT assay (cytotoxicity). The data set is classed as cell-based. Particulars: human; H9 cells; five days incubation. How it is done: In order to roughly assess the cytotoxicity of the compounds provided by the invention, several such compounds were tested in the MTT Assay described below. Compounds having a relatively high CC50 are preferred.
The MTT [3-(4,5-dimethylthiazol-2-yl)-2,5 diphenyl tetrazolium bromide) assay is based on cleavage of tetrazolium bromide by metabolically active cells, resulting in a highly quantitative blue color. This assay has been previously described (1) but has been optimized for the purposes of the testing reported herein.
The H9 cell line (2), an established human lymphoma suspension cell line grown in RPMI 1640 supplemented with 10% fetal bovine serum, is used as the target cell line in the assay. Cells (100µL) are plated in microtest plate wells at a concentration of 10^5 cells per mL in the presence of varying concentrations of inhibitor. The cells are incubated at 37°C in a humidified CO2 incubator. Five days later, 20µL of MTT (5mg/mL in RPMI 1640, sonicated, 0.2 micron filtered, and stored at 4°C) is added to each well. After 4 hours additional incubation at 37°C, 60µL of Triton-X is added to each well and thoroughly mixed to aid the solubilization of the crystals. Absolute ethanol (5µL) is added to each well and the resulting mixture is incubated for 30 minutes at 60°C and immediately read on a plate reader (Dynatech) at a wavelength of 570nm.
Data from this assay are used to generate a nonlinear regression analysis which yields an CC50.
Background: Formazan colour is commonly taken as a measure of viable cells.

Regarding `CCN1c2ncccc2C(=O)N(C)c2ccc(-c3cc[nH]c3)nc21` [Example 12, 5,11-Dihydro-11-ethyl-5-methyl-2-(3-pyrrolyl)-6H-dipyrido[3,2-b:2',3'-e][1,4]diazepin-6-one], at HIV-1 RT Y181C, the inhibition at 1 µM amounted to 91%. This molecule gave a CC50 at 120 h in the data set “MTT assay (cytotoxicity)” of more than 50 µM.
Consider `CN1C(=O)c2cccnc2N(C2CC2)c2nc(-c3cc[nH]c3)ccc21` [Example 25, 11-Cyclopropyl-5,11-dihydro-5-methyl-2-(3-pyrrolyl)-6H-dipyrido[3,2-b:2',3'-e][1,4]diazepin-6-one], for which the inhibition at 1 µM on HIV-1 RT Y181C was found to be 86%. Moreover, in the data set “MTT assay (cytotoxicity)”, the cytotoxic concentration (CC50) at 120 h is more than 80 µM.
On the same counts, the results for `CN1C(=O)c2cccnc2N(C2CC2)c2nc(-c3cn[nH]c3)ccc21` [Example 6, 5,11-Dihydro-5-methyl-11-c-propyl-2-(4-pyrazolyl)-6H-dipyrido[3,2-b:2',3'-e][1,4]diazepin-6-one] are 87% and more than 60 µM.
On the same counts, the results for `CCN1c2ncccc2C(=O)N(C)c2ccc(-c3cn[nH]c3)nc21` [Example 1, 5,11-Dihydro-11-ethyl-5-methyl-2-(4-pyrazolyl)-6H-dipyrido[3,2-b:2'3'-e][1,4]diazepin-6-one] are 96% and more than 60 µM.

In general, inhibition refers to the percentage by which the read-out fell short of the control. Broadly, the CC50 is the concentration at which the toxic effect on the cells reaches its halfway point. Low values mean harm at low concentration, high ones better tolerance by the cells.
